Test results reported in paper PMC9502870.

Test: Intramolecular Nicholas reaction: C-O or C-N bond formation between OH/NHR nucleophile and Co2(CO)6-stabilised propargyl cation (from propargylic OMe), BF3·Et2O 1.3-8 equiv, 0 °C to rt
Details: the molecule shown is the open-chain precursor, 10-membered ring, DCM, 1.0 mM, 25.0 °C

COCC#Cc1sc2ccccc2c1C#CCCNS(=O)(=O)c1ccccc1[N+](=O)[O-] [12a -> 13a]
ring closure, isolated yield (1.0 h): 46%

COCC#Cc1sc2ccccc2c1C#CCCNC(=O)c1ccccc1 [17b (no macrocycle; pyrroline 19 formed)]
ring closure, isolated yield (2.0 h): 0%

COCC#Cc1sc2ccccc2c1C#CCCNCc1ccccc1 [17a -> 18 (BF3·Et2O)]
ring closure, isolated yield (20.0 h): 4%

COCC#Cc1sc2ccccc2c1C#CCCNS(=O)(=O)c1ccc(C)cc1 [NHTs Co-complex -> 13c (ref 42)]
ring closure, isolated yield: 76%

COCC#Cc1sc2ccccc2c1C#CCC(O)CC(=O)OC (stereo not shown) [4 -> 5]
ring closure, isolated yield (1.0 h): 51%

C#CCCCC(=O)Nc1ccc(S(=O)(=O)NCCC#Cc2c(C#CCOC)sc3ccccc23)cc1 [12c -> 13b]
ring closure, isolated yield (1.0 h): 63%

COCC#Cc1sc2ccccc2c1C#CCCNS(=O)(=O)c1ccc(N)cc1 [12b (free NH2, no cyclization)]
ring closure, isolated yield: 0%
